Test results as given in the supplement of paper PMC10307832.

How the values were obtained:
Assay in all cases: relative viability (nuclei count vs DMSO), 5 days (fraction); higher = more cells survive
[1] = compound: CN(C)CC1=CC(=CC=C1)N=C(C2=CC=CC=C2)C3=C(NC4=C3C=CC(=C4)C(=O)N(C)C)O + CC(=O)c1c(C)c2cnc(Nc3ccc(N4CCNCC4)cn3)nc2n(C2CCCC2)c1=O [Palbociclib] (partner 0.5 µM)
Method in brief: (§1)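 Relative viability divides the nuclei count in treated wells by that in vehicle wells. Lung cancer cell lines were seeded in 1536-well plates, dosed by pin tool the next day, and fixed and stained after 5 days in one step with final 0.05% Triton X-100, 1% formaldehyde and 1 ug/ml Hoechst. Dosing was a single drug or a fixed anchor-drug dose plus five library-drug doses (not always all listed) in √10 steps, and values are medians of duplicate plates imaged at 4×.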

[2] = compound: CN(C)CC1=CC(=CC=C1)N=C(C2=CC=CC=C2)C3=C(NC4=C3C=CC(=C4)C(=O)N(C)C)O + O=C(c1cc(Cc2n[nH]c(=O)c3ccccc23)ccc1F)N1CCN(C(=O)C2CC2)CC1 [Olaparib] (partner 8 µM)
Method in brief: as §1

[3] = compound: CN(C)CC1=CC(=CC=C1)N=C(C2=CC=CC=C2)C3=C(NC4=C3C=CC(=C4)C(=O)N(C)C)O + Cc1nc(NC(=O)N2CCC[C@H]2C(N)=O)sc1-c1ccnc(C(C)(C)C(F)(F)F)c1 [Alpelisib] (partner 2 µM)
Method in brief: as §1

[4] = compound: CN(C)CC1=CC(=CC=C1)N=C(C2=CC=CC=C2)C3=C(NC4=C3C=CC(=C4)C(=O)N(C)C)O + Nc1nc2[nH]cc(CCc3ccc(C(=O)N[C@@H](CCC(=O)O)C(=O)O)cc3)c2c(=O)[nH]1 [Pemetrexed] (partner 0.2 µM)
Method in brief: as §1

Cell Line | relative viability ([1]; first compound 0.08 µM) | relative viability ([1]; first compound 0.253 µM) | relative viability ([1]; first compound 0.8 µM) | relative viability ([1]; first compound 2.53 µM) | relative viability ([1]; first compound 8 µM) | relative viability ([2]; first compound 0.08 µM) | relative viability ([2]; first compound 0.253 µM) | relative viability ([2]; first compound 0.8 µM) | relative viability ([2]; first compound 2.53 µM) | relative viability ([2]; first compound 8 µM) | relative viability ([3]; first compound 0.08 µM) | relative viability ([3]; first compound 0.253 µM) | relative viability ([3]; first compound 0.8 µM) | relative viability ([3]; first compound 2.53 µM) | relative viability ([3]; first compound 8 µM) | relative viability ([4]; first compound 0.08 µM) | relative viability ([4]; first compound 0.253 µM) | relative viability ([4]; first compound 0.8 µM) | relative viability ([4]; first compound 2.53 µM) | relative viability ([4]; first compound 8 µM)
HCC-366 | 0.406 | 0.364 | 0.404 | 0.412 | 0.341 | 0.339 | 0.371 | 0.437 | 0.347 | 0.304 | 0.397 | 0.386 | 0.42 | 0.393 | 0.344 | 0.141 | 0.17 | 0.265 | 0.164 | 0.25
HCC-827 | 0.516 | 0.385 | 0.38 | 0.52 | 0.472 | 0.615 | 0.65 | 0.67 | 0.623 | 0.685 | 1.06 | 1.04 | 0.93 | 0.923 | 0.875 | 0.266 | 0.241 | 0.25 | 0.229 | 0.269
HOP-62 | 0.372 | 0.445 | 0.441 | 0.43 | 0.4 | 0.373 | 0.327 | 0.361 | 0.251 | 0.504 | 0.995 | 1.13 | 0.93 | 1.03 | 0.973 | 0.264 | 0.248 | 0.438 | 0.344 | 0.322
IA-LM |  |  |  |  |  | 0.941 | 0.793 | 1.02 | 0.957 | 0.962 |  | 0.806 | 0.942 | 0.88 | 1.03 |  |  |  |  | 
LC-2-ad | 0.404 | 0.512 | 0.475 | 0.456 | 0.486 | 0.663 | 0.771 | 0.729 | 0.723 | 0.827 | 0.896 | 0.86 | 0.857 | 0.848 | 0.672 | 0.275 | 0.263 | 0.275 | 0.288 | 0.277
LCLC-97TM1 | 0.199 | 0.224 | 0.258 | 0.254 | 0.299 | 0.485 | 0.392 | 0.442 | 0.391 | 0.433 | 0.286 | 0.203 | 0.293 | 0.324 | 0.343 | 0.167 | 0.198 | 0.187 | 0.183 | 0.177
LCLC-103H | 0.255 | 0.425 | 0.558 | 0.449 | 0.458 | 0.751 | 0.782 | 0.773 | 0.775 | 0.749 | 0.987 | 0.923 | 0.938 | 0.876 | 0.98 | 0.47 | 0.442 | 0.555 | 0.458 | 0.456
LK-2 | 0.52 | 0.814 | 0.605 | 0.561 | 0.541 | 0.901 | 0.653 | 0.572 | 0.679 | 0.489 | 1.2 | 0.924 | 0.897 | 0.928 | 0.881 | 0.286 | 0.253 | 0.236 | 0.269 | 0.211
LOU-NH91 | 0.57 | 0.53 | 0.524 | 0.52 | 0.598 | 0.931 | 0.867 | 0.817 | 0.906 | 0.89 | 0.743 | 0.72 | 0.577 | 0.718 | 0.696 | 0.383 | 0.367 | 0.465 | 0.349 | 0.465
LU99A | 0.392 | 0.417 | 0.457 | 0.401 | 0.351 | 0.263 | 0.331 | 0.254 | 0.264 | 0.247 | 0.486 | 0.579 | 0.497 | 0.559 | 0.364 | 0.171 | 0.173 | 0.228 | 0.156 | 0.185
LXF-289 | 0.603 | 0.544 | 0.606 | 0.547 | 0.568 | 1.11 | 1.03 | 1.03 | 0.993 | 1.03 | 1.04 | 1 | 0.966 | 0.971 | 0.941 | 0.937 | 0.836 | 0.904 | 0.885 | 0.827
NCI-H522 | 0.956 | 1.04 | 0.906 | 0.886 | 0.923 | 0.573 | 0.663 | 0.545 | 0.713 | 0.622 |  |  |  |  |  | 1.03 | 1.04 | 0.763 | 1.07 | 0.817
NCI-H596 |  |  |  |  |  | 0.692 | 0.718 | 0.695 | 0.69 | 0.861 | 0.504 | 0.491 | 0.459 | 0.536 | 0.447 | 0.493 | 0.554 | 0.484 | 0.502 | 0.521
NCI-H727 |  | 0.617 | 0.593 | 0.391 | 0.74 |  | 0.697 | 0.672 | 0.672 | 0.86 | 0.631 | 0.564 | 0.621 | 0.603 | 0.608 |  |  |  |  | 
NCI-H1299 |  |  |  |  |  | 0.982 | 0.999 | 0.962 | 0.909 | 0.901 | 0.953 | 1.04 | 1.05 | 1.04 | 1.02 |  |  |  |  | 
NCI-H1563 |  |  |  |  |  |  |  |  |  |  | 1.03 | 1.03 | 0.956 | 0.875 | 0.847 | 0.829 | 0.665 | 0.782 | 0.741 | 0.698
NCI-H1648 | 0.274 | 0.276 |  | 0.365 | 0.315 | 0.867 | 0.72 |  | 0.709 | 1.28 |  |  |  |  |  | 0.717 | 0.758 |  | 0.739 | 0.668
NCI-H1650 | 0.36 | 0.399 | 0.331 | 0.314 | 0.364 | 0.821 | 0.787 | 0.753 | 0.937 | 0.75 |  |  |  |  |  | 0.34 | 0.353 | 0.344 | 0.373 | 0.39
NCI-H1703 |  |  |  |  |  | 0.375 | 0.559 | 0.39 | 0.199 | 0.214 | 0.354 | 0.282 | 0.41 | 0.22 | 0.184 |  |  |  |  | 
NCI-H2342 | 0.519 | 0.528 | 0.549 | 0.547 | 0.605 | 0.453 | 0.454 | 0.506 | 0.476 | 0.561 |  |  |  |  |  | 0.763 | 0.762 | 0.829 | 0.836 | 0.778
